Measured values reported in patent US8937096B2, “Use of benzo-fused heterocyle sulfamide derivatives for the treatment of mania and bipolar disorder” (priority 2005, dated 2015).

Legend:
[1] = tested on: Sprague Dawley rats; assay: Forced Swim Test (Acute); format: in vivo, rat
Experimental: The Forced Swim test (FST) is a commonly used procedure to screen compounds for possible antidepressant properties. This test is also known as the behavioral despair test. Rodents placed in […] tanks filled with water present a wide variety of escape or immobility behaviors. Antidepressant drugs from different classes markedly increase escape behaviors and/or decrease latency or duration of immobility.
Venlafaxine and desipramine were dissolved in water. All drugs and their vehicles were administered orally (p.o.) by gavage in a volume of 5 mL/kg.
Male Sprague Dawley rats (140 to 160 g) from Charles River Laboratories Wilmington, Mass. were used. The animals went through a five-day quarantine period before being subjected to the experimental procedure.
Animals were housed in groups of four in plastic cages at an ambient temperature of 21° C. to 23° C. with an automated 12 hour light/dark cycle and access to water and commercial rodent food ad libitum. Animals were not handled more than for the routine bedding change prior to pre-test swim session.
Each experiment consisted of seven treatment groups with n=4 animals per group. A total of 28 animals per experiment were used. Two consecutive experiments (1 and 2, 3 and 4, and 5 and 6) were exact replicas of each other. […] One treatment group of n=4 animals in each experiment was a vehicle treated group. […] In experiments 5 and 6 the effects of venlafaxine and maprotyline at 12 mg/kg, 30 mg/kg, and 60 mg/kg were tested.
The basic apparatus consisted of a cylinder (46 cm tall×˜20 cm diameter) filled with water to 30 cm deep, at a temperature of 25±1° C. The automated version of the FST was used to perform the experiments. Plumbing for automatic filling and emptying water connected the four cylinders. Cylinders were placed in the dividing chambers 25 cm wide to separate animals visually. Each 5-minute experimental session was videotaped and analyzed in real time by computer software (Clever Systems, Inc.) for four animals at a time. The immobility, swimming, climbing and escape times were recorded by the software. The four activities are defined as follow. Immobility: the animal floats motionlessly or makes only those movements necessary to keep its head above water; Climb: the animal vigorously moves vertically while scratching the wall around the cylinder; Swim: the animal moves horizontally around in the cylinder more than necessary to keep its head above water; and Escape: sum of all vigorous active movements.
The ability of a test compound to decrease the duration or frequency of immobility, or changes in swimming, climbing and escape times, was measured using the FST procedure described above. […] The analysis of the results in the studies described was focused on the immobility time during 5-minute test session.
There were two swim sessions in each experiment. First, a pre-test swim session for 15 minutes was performed. Following 48 hours later was a test session of 5-minute duration. Upon completion of a swim session, each animal was placed under a heat lamp in a cage with soft bedding for approximately 15 minutes to prevent hypothermia.
Animals were pre-treated with a vehicle or test compound after completing the pre-test swim session, then 24 hours later and then shortly prior to the 5-minute test session; i.e., three injections were given to each animal between the two swim sessions that occurred on 3 consecutive days.
Data were analyzed using GraphPad Prism software (GraphPad Software, Inc. San Diego, Calif.). For the comparison of the effect of different doses for various drugs on immobility in the FST one-way ANOVA was used followed by Dunnett's multiple comparison test. […] The ED50 and Emax values were statistically compared using two-tail t-test.

[2] = tested on: stressed and non-stressed animals; assay: Resident/Intruder Assay (Chronic Social Stress Assay); format: in vivo; set-up: Locomotor Mean ± SD / Rearing Mean ± SD / Sniffing Down Mean ± SD / Sniffing Up Mean ± SD: unit not given here
Excerpt: The behavioral resident/intruder assay is used to screen compounds for anti-depressant-like activity.

[3] = non-stressed, 10 mg/kg p.o., week 1
[4] = non-stressed, 10 mg/kg p.o., week 5
[5] = stressed, 10 mg/kg p.o., week 1
[6] = stressed, 10 mg/kg p.o., week 5
[7] = non-stressed, 60 mg/kg p.o., week 1
[8] = non-stressed, 60 mg/kg p.o., week 5
[9] = non-stressed, 120 mg/kg p.o., week 1
[10] = non-stressed, 120 mg/kg p.o., week 5
[11] = stressed, 60 mg/kg p.o., week 1
[12] = stressed, 60 mg/kg p.o., week 5
[13] = stressed, 120 mg/kg p.o., week 1
[14] = stressed, 120 mg/kg p.o., week 5

COc1ccc(C(CN(C)C)C2(O)CCCCC2)cc1 (centres unmarked) [Venlafaxine, venlafaxine, reference compound]
doses at which effect on immobility was statistically significant vs vehicle ([1]; p.o.): 30 mg/kg and 60 mg/kg
Forced Swim Test: Immobility during 5 min: Week 5 Mean ± SD ([2]; non-stressed, 10 mg/kg p.o.): 181.8 ± 27.6
Sucrose Intake Mean ± SD Week 3 ([2]; non-stressed, 10 mg/kg p.o.): 88.4 ± 9.1
Sucrose Intake Mean ± SD Week 4 ([2]; non-stressed, 10 mg/kg p.o.): 91.5 ± 5.6
Sucrose Intake Mean ± SD Week 5 ([2]; non-stressed, 10 mg/kg p.o.): 87.9 ± 15.0
Locomotor Mean ± SD [2, 3]: 9094.9 ± 1832.7
Rearing Mean ± SD [2, 3]: 48.3 ± 11.2
Sniffing Down Mean ± SD [2, 3]: 27.1 ± 5.2
Sniffing Up Mean ± SD [2, 3]: 43.3 ± 8.9
Locomotor Mean ± SD [2, 4]: 8078.6 ± 1665.2
Rearing Mean ± SD [2, 4]: 40.1 ± 8.9
Sniffing Down Mean ± SD [2, 4]: 27 ± 4.7
Sniffing Up Mean ± SD [2, 4]: 38.6 ± 7.7
Forced Swim Test: Immobility during 5 min: Week 5 Mean ± SD ([2]; stressed, 10 mg/kg p.o.): 190.4 ± 36.8
Sucrose Intake Mean ± SD Week 3 ([2]; stressed, 10 mg/kg p.o.): 74.5 ± 16.7
Sucrose Intake Mean ± SD Week 4 ([2]; stressed, 10 mg/kg p.o.): 76.1 ± 18.2
Sucrose Intake Mean ± SD Week 5 ([2]; stressed, 10 mg/kg p.o.): 73.3 ± 17.6
Locomotor Mean ± SD [2, 5]: 6233.6 ± 1087.2
Rearing Mean ± SD [2, 5]: 30.8 ± 6.6
Sniffing Down Mean ± SD [2, 5]: 14.9 ± 3.5
Sniffing Up Mean ± SD [2, 5]: 28.6 ± 6.5
Locomotor Mean ± SD [2, 6]: 6250.1 ± 789.2
Rearing Mean ± SD [2, 6]: 35.1 ± 7.4
Sniffing Down Mean ± SD [2, 6]: 18.3 ± 3.6
Sniffing Up Mean ± SD [2, 6]: 33.1 ± 7.5

NS(=O)(=O)NC[C@H]1COc2cc(Cl)ccc2O1 [Compound #8, (2S)-(−)-N-(6-Chloro-2,3-dihydro-benzo[1,4]dioxin-2-ylmethyl)-sulfamide]
effect on immobility vs control ([1]; 30 mg/kg p.o., large variability between individual rats): not significantly different from control
Emax (immobility) in the FST ([1]; p.o.): 67.0 ± 11.6 s
doses at which effect on immobility was statistically significant vs vehicle ([1]; p.o.): 12 mg/kg, 60 mg/kg, and 120 mg/kg
activity in the resident/intruder assay ([2]; 60 and 120 mg/kg p.o.): active in the resident/intruder assay
Forced Swim Test: Immobility during 5 min: Week 5 Mean ± SD ([2]; non-stressed, 60 mg/kg p.o.): 164.3 ± 25.3
Sucrose Intake Mean ± SD Week 3 ([2]; non-stressed, 60 mg/kg p.o.): 90.9 ± 3.5
Sucrose Intake Mean ± SD Week 4 ([2]; non-stressed, 60 mg/kg p.o.): 92.3 ± 1.4
Sucrose Intake Mean ± SD Week 5 ([2]; non-stressed, 60 mg/kg p.o.): 88.9 ± 7.4
Locomotor Mean ± SD [2, 7]: 8288.6 ± 2117.5
Rearing Mean ± SD [2, 7]: 49.6 ± 8.7
Sniffing Down Mean ± SD [2, 7]: 20.9 ± 3.3
Sniffing Up Mean ± SD [2, 7]: 44.1 ± 9.4
Locomotor Mean ± SD [2, 8]: 7922.9 ± 1476
Rearing Mean ± SD [2, 8]: 37.4 ± 11.5
Sniffing Down Mean ± SD [2, 8]: 23.5 ± 6.4
Sniffing Up Mean ± SD [2, 8]: 33.4 ± 11.2
Forced Swim Test: Immobility during 5 min: Week 5 Mean ± SD ([2]; non-stressed, 120 mg/kg p.o.): 136.7 ± 34.9
Sucrose Intake Mean ± SD Week 3 ([2]; non-stressed, 120 mg/kg p.o.): 83.6 ± 22.1
Sucrose Intake Mean ± SD Week 4 ([2]; non-stressed, 120 mg/kg p.o.): 91.3 ± 4.6
Sucrose Intake Mean ± SD Week 5 ([2]; non-stressed, 120 mg/kg p.o.): 89.3 ± 5.1
Locomotor Mean ± SD [2, 9]: 8056.6 ± 867.2
Rearing Mean ± SD [2, 9]: 42 ± 10.6
Sniffing Down Mean ± SD [2, 9]: 22.8 ± 3.7
Sniffing Up Mean ± SD [2, 9]: 37.6 ± 8.4
Locomotor Mean ± SD [2, 10]: 8648.3 ± 1060.9
Rearing Mean ± SD [2, 10]: 36.5 ± 6.3
Sniffing Down Mean ± SD [2, 10]: 25.5 ± 4.1
Sniffing Up Mean ± SD [2, 10]: 33.5 ± 5.9
Forced Swim Test: Immobility during 5 min: Week 5 Mean ± SD ([2]; stressed, 60 mg/kg p.o.): 175.1 ± 29.5
Sucrose Intake Mean ± SD Week 3 ([2]; stressed, 60 mg/kg p.o.): 92.1 ± 3.2
Sucrose Intake Mean ± SD Week 4 ([2]; stressed, 60 mg/kg p.o.): 89.5 ± 6.9
Sucrose Intake Mean ± SD Week 5 ([2]; stressed, 60 mg/kg p.o.): 92.4 ± 4.5
Locomotor Mean ± SD [2, 11]: 5858.5 ± 708.2
Rearing Mean ± SD [2, 11]: 26.5 ± 6.1
Sniffing Down Mean ± SD [2, 11]: 13 ± 3.3
Sniffing Up Mean ± SD [2, 11]: 25 ± 7.3
Locomotor Mean ± SD [2, 12]: 7080.9 ± 1238.7
Rearing Mean ± SD [2, 12]: 32.8 ± 10.3
Sniffing Down Mean ± SD [2, 12]: 24.8 ± 5.7
Sniffing Up Mean ± SD [2, 12]: 30.6 ± 11.1
Forced Swim Test: Immobility during 5 min: Week 5 Mean ± SD ([2]; stressed, 120 mg/kg p.o.): 128.3 ± 37.4
Sucrose Intake Mean ± SD Week 3 ([2]; stressed, 120 mg/kg p.o.): 76.1 ± 20.8
Sucrose Intake Mean ± SD Week 4 ([2]; stressed, 120 mg/kg p.o.): 75.5 ± 20.6
Sucrose Intake Mean ± SD Week 5 ([2]; stressed, 120 mg/kg p.o.): 87.4 ± 7.9
Locomotor Mean ± SD [2, 13]: 6168.3 ± 1132.1
Rearing Mean ± SD [2, 13]: 29.3 ± 7
Sniffing Down Mean ± SD [2, 13]: 13 ± 3.6
Sniffing Up Mean ± SD [2, 13]: 27.5 ± 6.1
Locomotor Mean ± SD [2, 14]: 6444 ± 1010.3
Rearing Mean ± SD [2, 14]: 30.1 ± 6.4
Sniffing Down Mean ± SD [2, 14]: 22.5 ± 4.1
Sniffing Up Mean ± SD [2, 14]: 30.4 ± 7.5
